Source: ChEMBL document CHEMBL5532639, “Heterocyclic pyrimidine derivatives as promising antibacterial agents” (Eur J Med Chem, 2023)
≈ marks a conversion by molar mass, not a printed value.

Tests used:
[1] = test system: Shigella boydii; assay: Antibacterial activity against Shigella boydii assessed as inhibition of bacterial growth measured after 18 to 20 hrs by broth microdilution method; type: functional; conditions: time 18-20 hrs
[2] = test system: Proteus vulgaris; assay: Antimicrobial activity against Proteus vulgaris assessed as microbial growth inhibition incubated for 24 hrs by broth microdilution method; type: functional
[3] = test system: Pseudomonas aeruginosa; assay: Antimicrobial activity against Pseudomonas aeruginosa assessed as inhibition of microbial growth incubated for 18 hrs by CLSI protocol based Mueller-Hinton broth assay; type: functional
[4] = test system: Salmonella typhimurium; assay: Antibacterial activity against Salmonella typhimurium DT104 assessed as reduction in bacterial growth inhibition measured after 24 hrs by Mueller Hinton Agar dilution method; type: functional, Salmonella enterica subsp. enterica serovar Typhimurium; conditions: Salmonella enterica
[5] = test system: Providencia rettgeri; assay: Antibacterial activity against Providencia rettgeri assessed as bacterial growth inhibition incubated for 18 hrs by CLSI protocol based Mueller-Hinton broth assay; type: functional
[6] = test system: Edwardsiella tarda; assay: Antimicrobial activity against Edwardsiella tarda assessed as inhibition of microbial growth incubated for 18 hrs by CLSI protocol based Mueller-Hinton broth assay; type: functional
[7] = test system: Bacillus subtilis; assay: Antibacterial activity against Bacillus subtilis assessed as reduction in bacterial growth incubated for 24 hrs by CLSI protocol based Mueller-Hinton broth assay; type: functional
[8] = test system: Escherichia coli; assay: Antimicrobial activity against Escherichia coli assessed as inhibition of microbial growth incubated for 18 hrs by CLSI protocol based Mueller-Hinton broth assay; type: functional
[9] = test system: Salmonella enterica subsp. enterica serovar Paratyphi B; assay: Antibacterial activity against Salmonella paratyphi B CICC 21495 assessed as reduction in […]; type: functional; conditions: time lower 48 hrs
[10] = test system: Aeromonas hydrophila; assay: Antibacterial activity against Aeromonas hydrophila assessed as inhibition of microbial growth incubated for 24 hrs by CLSI protocol based Mueller-Hinton broth assay; type: functional
[11] = test system: Shigella flexneri; assay: Antibacterial activity against Shigella flexneri assessed as inhibition of bacterial growth incubated for 24 hrs by broth microdilution method; type: functional
[12] = test system: Morganella morganii; assay: Antibacterial activity against Morganella morganii UM869 incubated for 16 to 18 hrs by broth microdilution method; type: functional; conditions: time 16-18 hrs
[13] = test system: Enterococcus faecalis; assay: Antimicrobial activity against Enterococcus faecalis assessed as inhibition of microbial growth incubated for 18 hrs by CLSI protocol based Mueller-Hinton broth assay; type: functional
[14] = test system: Vibrio cholerae; assay: Antibacterial activity against Vibrio cholerae assessed as inhibition of bacterial growth incubated for 24 hrs by broth microdilution method; type: functional
[15] = test system: Vibrio parahaemolyticus; assay: Antibacterial activity against Vibrio parahaemolyticus assessed as reduction in bacterial growth inhibition measured after 24 hrs by Mueller Hinton Agar dilution method; type: functional
[16] = test system: Staphylococcus aureus; assay: Antimicrobial activity against Staphylococcus aureus assessed as inhibition of microbial growth incubated for 18 hrs by CLSI protocol based Mueller-Hinton broth assay; type: functional
[17] = test system: Staphylococcus epidermidis; assay: Antimicrobial activity against Staphylococcus epidermidis assessed as inhibition of microbial growth incubated for 18 hrs by CLSI protocol based Mueller-Hinton broth assay; type: functional
[18] = test system: Salmonella paratyphi; assay: Antibacterial activity against Salmonella paratyphi A CICC 21501 incubated overnight by standard microtiter dilution method; type: functional, Salmonella enterica subsp. enterica serovar Paratyphi A; conditions: Salmonella enterica
[19] = test system: Klebsiella pneumoniae; assay: Antimicrobial activity against Klebsiella pneumoniae assessed as inhibition of microbial growth incubated for 18 hrs by CLSI protocol based Mueller-Hinton broth assay; type: functional
[20] = test system: Citrobacter freundii; assay: Antibacterial activity against multidrug-resistant Citrobacter freundii assessed as bacterial growth inhibition incubated for 20 to 22 hrs by CLSI based analysis; type: functional; conditions: time 20-22 hrs
[21] = test system: Plesiomonas shigelloides; assay: Antibacterial activity against Plesiomonas shigelloides assessed as inhibition of bacterial growth measured after 18 to 20 hrs by broth microdilution method; type: functional; conditions: time 18-20 hrs
[22] = test system: Vibrio cholerae; assay: Antibacterial activity against Vibrio cholerae assessed as reduction in bacterial growth measured after 18 to 20 hrs by broth microdilution method; type: functional; conditions: time 18-20 hrs
[23] = test system: Shigella sonnei; assay: Antibacterial activity against Shigella sonnei assessed as inhibition of bacterial growth measured after 18 to 20 hrs by broth microdilution method; type: functional; conditions: time 18-20 hrs
[24] = test system: Salmonella enterica; assay: Antimicrobial activity against Salmonella enterica assessed as inhibition of microbial growth incubated for 18 hrs by CLSI protocol based Mueller-Hinton broth assay; type: functional
[25] = test system: Enterobacter sp.; assay: Antibacterial activity against Enterobacter sp. assessed as inhibition of bacterial growth; type: functional
[26] = test system: Salmonella typhimurium; assay: Antimicrobial activity against Salmonella typhimurium DT104 assessed as inhibition of microbial growth incubated for 18 hrs by CLSI protocol based Mueller-Hinton broth assay; type: functional, Salmonella enterica subsp. enterica serovar Typhimurium; conditions: Salmonella enterica
[27] = test system: Vibrio cholerae; assay: Antibacterial activity against Vibrio cholerae measured after 18 to 20 hrs by broth microdilution method; type: functional; conditions: time 18-20 hrs
[28] = test system: Morganella morganii; assay: Antibacterial activity against Morganella morganii UM573 assessed as bacterial growth inhibition incubated for 20 to 22 hrs by CLSI based analysis; type: functional; conditions: time 20-22 hrs
[29] = test system: Salmonella typhimurium; assay: Antimicrobial activity against Salmonella typhimurium DT104 assessed as diameter of inhibition zone incubated for 24 hrs by well diffusion assay; type: functional, Salmonella enterica subsp. enterica serovar Typhimurium
[30] = test system: Staphylococcus aureus; assay: Antibacterial activity against Staphylococcus aureus assessed as bacterial growth inhibition by measuring zone of inhibition at 50 ug/ml by agar cup diffusion assay; type: functional; conditions: read-out: IZ
[31] = test system: Escherichia coli; assay: Antibacterial activity against Escherichia coli assessed as bacterial growth inhibition by measuring zone of inhibition at 50 ug/ml by agar cup diffusion assay; type: functional; conditions: read-out: IZ
[32] = test system: Salmonella typhimurium; assay: Antibacterial activity against Salmonella typhimurium DT104 assessed as bacterial growth inhibition by measuring zone of inhibition at 50 ug/ml by agar cup diffusion assay; type: functional, Salmonella enterica subsp. enterica serovar Typhimurium; conditions: Salmonella enterica, read-out: IZ
[33] = test system: Pseudomonas aeruginosa; assay: Antimicrobial activity against Pseudomonas aeruginosa assessed as diameter of inhibition zone incubated for 24 hrs by well diffusion assay; type: functional
[34] = test system: Bacillus subtilis; assay: Antimicrobial activity against Bacillus subtilis assessed as diameter of inhibition zone incubated for 24 hrs by well diffusion assay; type: functional
[35] = test system: Micrococcus luteus; assay: Antimicrobial activity against Micrococcus luteus assessed as diameter of inhibition zone incubated for 24 hrs by well diffusion assay; type: functional
[36] = test system: Bacillus subtilis; assay: Antibacterial activity against Bacillus subtilis assessed as bacterial growth inhibition by measuring zone of inhibition at 50 ug/ml by agar cup diffusion assay; type: functional; conditions: read-out: IZ
[37] = test system: Staphylococcus aureus; assay: Antibacterial activity against Staphylococcus aureus assessed as bacterial growth inhibition; type: functional
[38] = test system: Klebsiella pneumoniae; assay: Antibacterial activity against Klebsiella pneumoniae assessed as reduction in bacterial growth by broth microdilution method; type: functional
[39] = test system: Bacillus subtilis; assay: Antibacterial activity against Bacillus subtilis assessed as reduction in bacterial cell viability by well plate method; type: functional
[40] = test system: Pseudomonas aeruginosa; assay: Antibacterial activity against Pseudomonas aeruginosa assessed as reduction in microbial growth by broth microdilution method; type: functional
[41] = test system: Escherichia coli; assay: Antibacterial activity against Escherichia coli assessed as reduction in bacterial growth by broth microdilution method; type: functional
[42] = test system: Staphylococcus epidermidis; assay: Antibacterial activity against Staphylococcus epidermidis assessed as reduction in microbial growth; type: functional
[43] = test system: Escherichia coli; assay: Antibacterial activity Escherichia coli assessed as reduction in bacterial growth; type: functional
[44] = test system: Pseudomonas aeruginosa; assay: Antibacterial activity against Pseudomonas aeruginosa assessed as reduction in microbial growth after 18 hrs by MTT based broth dilution method; type: functional
[45] = test system: Klebsiella sp.; assay: Antibacterial activity against Klebsiella sp. assessed as inhibition of bacterial growth; type: functional
[46] = test system: Staphylococcus aureus; assay: Antibacterial activity against Staphylococcus aureus assessed as reduction in microbial growth; type: functional
[47] = test system: Pseudomonas aeruginosa; assay: Antibacterial activity against Pseudomonas aeruginosa assessed as reduction in bacterial growth; type: functional
[48] = test system: Escherichia coli; assay: Antibacterial activity against Escherichia coli assessed as reduction in bacterial growth; type: functional

SMILES | MIC [1] [µg/mL] | MIC [2] [µg/mL] | MIC [3] [µg/mL] | MIC [4] [µg/mL] | MIC [5] [µg/mL] | MIC [6] [µg/mL] | MIC [7] [µg/mL] | MIC [8] [µg/mL] | MIC [9] [µg/mL] | MIC [10] [µg/mL] | MIC [11] [µg/mL] | MIC [12] [µg/mL] | MIC [13] [µg/mL] | MIC [14] [µg/mL] | MIC [15] [µg/mL] | MIC [16] [µg/mL] | MIC [17] [µg/mL] | MIC [18] [µg/mL] | MIC [19] [µg/mL] | MIC [20] [µg/mL] | other results
Cc1ccc(-c2cc(-c3ccc(Cl)cc3)nc(/N=C3/C(=O)N(CNCN4CCOCC4)c4ccc(Br)cc43)n2)cc1 | 9.76 (≈ 15.4 µM) | 312 (≈ 494 µM) | 312 | 156 (≈ 247 µM) | 39.1 (≈ 61.8 µM) | 39.1 | 9.76 (≈ 15.4 µM) | 2.44 | 39.1 (≈ 61.8 µM) | 312 | 312 (≈ 494 µM) | 156 (≈ 247 µM) | 1.22 | 39.1 (≈ 61.8 µM) | 78.1 (≈ 124 µM) | 78.1 | 625 | 39.1 (≈ 61.8 µM) | 312 | 39.1 (≈ 61.8 µM) | MIC [21]: 4.88 µg/mL (≈ 7.72 µM); MIC [22]: 9.76 µg/mL (≈ 15.4 µM); MIC [23]: 312 µg/mL (≈ 494 µM); MIC [24]: 9.76 µg/mL; MIC [25]: 156 µg/mL (≈ 247 µM); MIC [26]: 19.5 µg/mL; MIC [27]: 0.3 µg/mL (≈ 0.475 µM); MIC [28]: 156 µg/mL (≈ 247 µM)
CN(C)[C@@H]1C(O)=C(C(N)=O)C(=O)[C@@]2(O)C(O)=C3C(=O)c4c(O)cccc4[C@@](C)(O)[C@H]3C[C@@H]12 [TETRACYCLINE] |  |  |  |  |  |  |  |  |  |  |  |  |  |  |  |  |  |  |  |  | inhibition zone (IZ) [29]: 8 mm; zone of inhibition at 50 µg/mL [30]: 19 mm; zone of inhibition at 50 µg/mL [31]: 15 mm; zone of inhibition at 50 µg/mL [32]: 24 mm; inhibition zone (IZ) [33]: 18 mm; inhibition zone (IZ) [34]: 14 mm; inhibition zone (IZ) [35]: 16 mm; zone of inhibition at 50 µg/mL [36]: 21 mm
COc1ccc(C2C3=C(CCCC3=O)Oc3nc(-c4cc5ccccc5oc4=O)[nH]c(=O)c32)cc1OC (centres undefined) |  |  |  |  |  |  |  |  |  |  |  |  |  |  |  |  |  |  |  |  | MIC [37]: 50 µg/mL (≈ 100 µM); MIC [38]: 50 µg/mL (≈ 100 µM); MIC [39]: 50 µg/mL (≈ 100 µM); MIC [40]: 50 µg/mL; MIC [41]: 12.5 µg/mL (≈ 25.1 µM); MIC [42]: 100 µg/mL; MIC [43]: 50 µg/mL (≈ 100 µM); MIC [44]: 50 µg/mL
COc1cc(Cc2cnc(N)nc2N)cc(OC)c1OC [TRIMETHOPRIM] | 9.76 (≈ 33.6 µM) | 156 (≈ 538 µM) | 5000 | > 5000 | 2500 (≈ 8610 µM) | 312 | 5000 (≈ 17200 µM) | 19.5 | 9.76 (≈ 33.6 µM) | 1250 | 156 (≈ 538 µM) | 156 (≈ 538 µM) | 78.1 | 39.1 (≈ 135 µM) | 2.44 (≈ 8.4 µM) | > 5000 | > 5000 | 156 (≈ 538 µM) | 5000 | 19.5 (≈ 67.3 µM) | MIC [21]: 4.88 µg/mL (≈ 16.8 µM); MIC [22]: 5000 µg/mL (≈ 17200 µM); MIC [23]: 9.76 µg/mL (≈ 33.6 µM); MIC [24]: 4.88 µg/mL; MIC [25]: 156 µg/mL (≈ 538 µM); MIC [26]: 4.88 µg/mL; MIC [27]: 1.22 µg/mL (≈ 4.2 µM); MIC [28]: 156 µg/mL (≈ 538 µM)
NC(=O)N/N=C/c1ccc([N+](=O)[O-])o1 [NITROFURAZONE] |  |  |  |  |  |  |  |  |  |  |  |  |  |  |  |  |  |  |  |  | MIC [45]: 12.5 µg/mL (≈ 63.1 µM); MIC [46]: 12.5 µg/mL; MIC [47]: 6 µg/mL (≈ 30.3 µM); MIC [48]: 12.5 µg/mL (≈ 63.1 µM)
Cc1cc(NS(=O)(=O)c2ccc(N)cc2)no1 [SULFAMETHOXAZOLE] | 2500 (≈ 9870 µM) | 2500 (≈ 9870 µM) | 78.1 | 5000 (≈ 19700 µM) | 2500 (≈ 9870 µM) | 5000 | 5000 (≈ 19700 µM) | 2500 | 5000 (≈ 19700 µM) | 2500 | 2500 (≈ 9870 µM) | 2500 (≈ 9870 µM) | 5000 | > 5000 | 1250 (≈ 4940 µM) | 5000 | 2500 | 2500 (≈ 9870 µM) | 2500 | 5000 (≈ 19700 µM) | MIC [21]: 5000 µg/mL (≈ 19700 µM); MIC [22]: 5000 µg/mL (≈ 19700 µM); MIC [23]: 2500 µg/mL (≈ 9870 µM); MIC [24]: 2500 µg/mL; MIC [25]: 1250 µg/mL (≈ 4940 µM); MIC [26]: 2500 µg/mL; MIC [27]: 312 µg/mL (≈ 1230 µM); MIC [28]: 5000 µg/mL (≈ 19700 µM)
